# Columns and labels:
# Assay in all cases: Experiment B1 glasshouse herbicide test, pre- and post-emergence, percentage damage
# Assay type in all cases: in vivo
# Details in all cases: evaluated after 13 days
# Setaria faberi (SETFA) = system: Setaria faberi (SETFA)
# Method: (§1) Seeds of a variety of test species are sown in standard soil in pots (Lolium perenne (LOLPE), Solanum nigrum (SOLNI), Amaranthus retoflexus (AMARE), Setaria faberi (SETFA), Echinochloa crus-galli (ECHCG), Ipomoea hederacea (IPOHE)). After cultivation for one day (pre-emergence) or after 8 days cultivation (post-emergence) under controlled conditions in a glasshouse (at 24/16° C., day/night; 14 hours light; 65% humidity), the plants are sprayed with an aqueous spray solution derived from the formulation of the technical active ingredient in acetone/water (50:50) solution containing 0.5% Tween 20 (polyoxyethelyene sorbitan monolaurate, CAS RN 9005-64-5). […] The test plants are then grown in a glasshouse under controlled conditions in a glasshouse (at 24/16° C., day/night; 14 hours light; 65% humidity) and watered twice daily. After 13 days for pre and post-emergence, the test is evaluated for the percentage damage caused to the plant. The biological activities are shown in the following table on a five point scale (5=80-100%; 4=60-79%; 3=40-59%; 2=20-39%; 1=0-19%).
# [1] = system: Amaranthus retoflexus (AMARE)
# Method: as §1
# Solanum nigrum (SOLNI) = system: Solanum nigrum (SOLNI)
# Method: as §1
# Lolium perenne (LOLPE) = system: Lolium perenne (LOLPE)
# Method: as §1
# [2] = system: Ipomoea hederacea (IPOHE)
# Method: as §1
# [3] = system: Echinochloa crus-galli (ECHCG)
# Method: as §1
# [4] = POST Application (post-emergence), applied at 250 g/ha
# [5] = PRE Application (pre-emergence), applied at 250 g/ha
# [6] = POST Application (post-emergence, after 8 days cultivation), 1000 g/h
# [7] = PRE Application (pre-emergence, after cultivation for one day), 1000 g/h
SMILES,"percentage damage caused to the plant, five point scale, SETFA (Setaria faberi (SETFA); [6])","percentage damage caused to the plant, five point scale, SETFA (Setaria faberi (SETFA); [7])","percentage damage caused to the plant, five point scale, AMARE [1, 6]","percentage damage caused to the plant, five point scale, AMARE [1, 7]","percentage damage caused to the plant, five point scale, SOLNI (Solanum nigrum (SOLNI); [6])","percentage damage caused to the plant, five point scale, SOLNI (Solanum nigrum (SOLNI); [7])","percentage damage caused to the plant, five point scale, LOLPE (Lolium perenne (LOLPE); [6])","percentage damage caused to the plant, five point scale, LOLPE (Lolium perenne (LOLPE); [7])","percentage damage caused to the plant, five point scale, IPOHE [2, 6]","percentage damage caused to the plant, five point scale, IPOHE [2, 7]","percentage damage caused to the plant, five point scale, ECHCG [3, 6]","percentage damage caused to the plant, five point scale, ECHCG [3, 7]",also measured
"Cn1nnnc1NC(=O)c1cc2cccnc2c(-c2ccccc2)c1S(C)(=O)=O [Compound 1.010, 7-METHYLSULFONYL-N-(1-METHYLTETRAZOL-5-YL)-8-PHENYL-QUINOLINE-6-CARBOXAMIDE]",,,,,,,,,,,,,"percentage damage caused to the plant, five point scale, SETFA (Setaria faberi (SETFA); [4]): 5 (5=80-100%); percentage damage caused to the plant, five point scale, SETFA (Setaria faberi (SETFA); [5]): 2 (2=20-39%); percentage damage caused to the plant, five point scale, AMARE [1, 4]: 5 (5=80-100%); percentage damage caused to the plant, five point scale, AMARE [1, 5]: 5 (5=80-100%); percentage damage caused to the plant, five point scale, SOLNI (Solanum nigrum (SOLNI); [4]): 5 (5=80-100%); percentage damage caused to the plant, five point scale, SOLNI (Solanum nigrum (SOLNI); [5]): 5 (5=80-100%); percentage damage caused to the plant, five point scale, LOLPE (Lolium perenne (LOLPE); [4]): 4 (4=60-79%); percentage damage caused to the plant, five point scale, LOLPE (Lolium perenne (LOLPE); [5]): 2 (2=20-39%); percentage damage caused to the plant, five point scale, IPOHE [2, 4]: 5 (5=80-100%); percentage damage caused to the plant, five point scale, IPOHE [2, 5]: 4 (4=60-79%); percentage damage caused to the plant, five point scale, ECHCG [3, 4]: 5 (5=80-100%); percentage damage caused to the plant, five point scale, ECHCG [3, 5]: 5 (5=80-100%)"
COc1ccc(-c2c(C)c(C(=O)Nc3nnnn3C)cc3cccnc23)cc1 [Compound 1.034],5 (5=80-100%),5 (5=80-100%),5 (5=80-100%),5 (5=80-100%),5 (5=80-100%),5 (5=80-100%),4 (4=60-79%),5 (5=80-100%),5 (5=80-100%),5 (5=80-100%),5 (5=80-100%),5 (5=80-100%),
"Cn1nnnc1NC(=O)c1cc2cc(F)cnc2c(-c2ccccc2)c1C(F)(F)F [Compound 1.007, 3-fluoro-N-(1-methyltetrazol-5-yl)-8-phenyl-7-(trifluoromethyl)quinoline-6-carboxamide]",5 (5=80-100%),5 (5=80-100%),5 (5=80-100%),5 (5=80-100%),5 (5=80-100%),5 (5=80-100%),5 (5=80-100%),5 (5=80-100%),5 (5=80-100%),5 (5=80-100%),5 (5=80-100%),5 (5=80-100%),
O=C(Nc1nnnn1-c1ccccc1)c1cc2cccnc2c(-c2ccccc2)c1C(F)(F)F [Compound 1.033],2 (2=20-39%),1 (1=0-19%),5 (5=80-100%),5 (5=80-100%),5 (5=80-100%),4 (4=60-79%),1 (1=0-19%),1 (1=0-19%),5 (5=80-100%),3 (3=40-59%),2 (2=20-39%),1 (1=0-19%),
Cc1ccc2cc(C(=O)Nc3nnnn3C)c(C)c(-c3ccc(S(C)(=O)=O)cc3)c2n1 [Compound 1.038],5 (5=80-100%),5 (5=80-100%),5 (5=80-100%),5 (5=80-100%),5 (5=80-100%),5 (5=80-100%),5 (5=80-100%),4 (4=60-79%),5 (5=80-100%),4 (4=60-79%),5 (5=80-100%),5 (5=80-100%),
CCCn1nnnc1NC(=O)c1cc2cccnc2c(-c2ccccc2)c1C(F)(F)F [Compound 1.003],2 (2=20-39%),1 (1=0-19%),5 (5=80-100%),5 (5=80-100%),5 (5=80-100%),5 (5=80-100%),1 (1=0-19%),1 (1=0-19%),4 (4=60-79%),2 (2=20-39%),3 (3=40-59%),5 (5=80-100%),
Cn1nnnc1NC(=O)c1cc2cccnc2c(-c2ccccc2)c1[S+](C)[O-] (stereo not drawn) [Compound 1.045],,,,,,,,,,,,,"percentage damage caused to the plant, five point scale, SETFA (Setaria faberi (SETFA); [4]): 5 (5=80-100%); percentage damage caused to the plant, five point scale, SETFA (Setaria faberi (SETFA); [5]): 1 (1=0-19%); percentage damage caused to the plant, five point scale, AMARE [1, 4]: 5 (5=80-100%); percentage damage caused to the plant, five point scale, AMARE [1, 5]: 4 (4=60-79%); percentage damage caused to the plant, five point scale, SOLNI (Solanum nigrum (SOLNI); [4]): 5 (5=80-100%); percentage damage caused to the plant, five point scale, SOLNI (Solanum nigrum (SOLNI); [5]): 4 (4=60-79%); percentage damage caused to the plant, five point scale, LOLPE (Lolium perenne (LOLPE); [4]): 3 (3=40-59%); percentage damage caused to the plant, five point scale, LOLPE (Lolium perenne (LOLPE); [5]): 1 (1=0-19%); percentage damage caused to the plant, five point scale, IPOHE [2, 4]: 5 (5=80-100%); percentage damage caused to the plant, five point scale, IPOHE [2, 5]: 2 (2=20-39%); percentage damage caused to the plant, five point scale, ECHCG [3, 4]: 5 (5=80-100%); percentage damage caused to the plant, five point scale, ECHCG [3, 5]: 4 (4=60-79%)"
"Cn1nnnc1NC(=O)c1cc2cccnc2c(-c2ccccc2)c1Cl [Compound 1.011, 7-chloro-N-(1-methyltetrazol-5-yl)-8-phenyl-quinoline-6-carboxamide]",5 (5=80-100%),5 (5=80-100%),5 (5=80-100%),5 (5=80-100%),5 (5=80-100%),5 (5=80-100%),5 (5=80-100%),5 (5=80-100%),5 (5=80-100%),5 (5=80-100%),5 (5=80-100%),5 (5=80-100%),
"CSc1c(C(=O)Nc2nnnn2C)cc2cccnc2c1-c1ccccc1 [Compound 1.032, 7-methylsulfanyl-N-(1-methyltetrazol-5-yl)-8-phenyl-quinoline-6-carboxamide]",5 (5=80-100%),5 (5=80-100%),5 (5=80-100%),5 (5=80-100%),5 (5=80-100%),5 (5=80-100%),5 (5=80-100%),5 (5=80-100%),5 (5=80-100%),5 (5=80-100%),5 (5=80-100%),5 (5=80-100%),
"COc1c(C(=O)Nc2nnnn2C)cc2cccnc2c1-c1ccccc1 [Compound 1.009, 7-methoxy-N-(1-methyltetrazol-5-yl)-8-phenyl-quinoline-6-carboxamide]",5 (5=80-100%),5 (5=80-100%),5 (5=80-100%),5 (5=80-100%),5 (5=80-100%),5 (5=80-100%),4 (4=60-79%),5 (5=80-100%),5 (5=80-100%),5 (5=80-100%),5 (5=80-100%),5 (5=80-100%),
